Source: patent US10566550B2, “Formulation containing an organic semiconductor and a metal complex” (Merck Patent GmbH, priority 2015, dated 2020)
In brackets after ≈: the same amount, converted by molar mass.

Test: Solubility of the materials in various solvents at 20° C.
Assay type: physicochemical
Conditions: organic solvent or mixture, thermodynamic from solid
Protocol: For the purposes of this application, the solubility of a material in a solvent is taken to mean the highest material-to-solvent ratio in which the solution at room temperature (at about 20° C.), is clear and stays clear for at least several hours, preferably for at least 5 hours.
The solubility of a material in a solvent is the highest material-to-solvent ratio in which the solution at 20° C. is clear and stays clear for several hours.
The solubility (g/l) is determined according to the following method:
(1) A known amount of the solvent (for example 100 mL) is put in a container
(2) A defined amount of the material is added and the mixture is stirred with a magnetic stirring bar;

[1] = LM8 Toluene:Hexafluorobenzene (7:3)

Compound | solubility (LM1 Anisole:Xylene (2:1)) | solubility (LM2 Anisole) | solubility (LM3 Xylene) | solubility (LM4 Chlorobenzene) | solubility (LM5 THF) | solubility (LM6 Toluene:THF (9:1)) | solubility (LM7 Hexafluorobenzene) | solubility [1] | solubility (LM9 Meta-difluorobenzene) | solubility (LM10 Fluorobenzene) | solubility (LM11 Acetonitrile) | solubility (LM12 Benzonitrile) | solubility (LM13 Acetone) | solubility (LM14 DMF) | solubility (LM15 Toluene:DMF (8:2)) | solubility (LM16 DMSO) | solubility (LM17 Methanol) | solubility (LM18 Toluene:Methanol (8:2)) | solubility (LM19 EGDME) | solubility (LM20 Toluene)
O=C([O][Bi]([O]C(=O)c1ccc(F)c(F)c1F)[O]C(=O)c1ccc(F)c(F)c1F)c1ccc(F)c(F)c1F [M1] | < 7.5 mg/mL | < 7.5 mg/mL | < 7.5 mg/mL | < 7.5 mg/mL | > 100 mg/mL | > 30 mg/mL | 15 to 20 mg/mL | 15 mg/mL | < 7.5 mg/mL | < 7.5 mg/mL | < 10 mg/mL | > 20 mg/mL | > 20 mg/mL | > 40 mg/mL | 15 mg/mL | > 20 mg/mL | > 20 mg/mL | 20 mg/mL | > 20 mg/mL | < 7.5 mg/mL
CC1(C)c2ccccc2-c2ccc(N(c3ccc4c(c3)C3(c5ccccc5-c5ccccc53)c3ccccc3-4)c3ccccc3-c3ccccc3)cc21 [OS6] | > 50 mg/mL | 100 mg/mL (≈ 148 mM) | 40 mg/mL (≈ 59.2 mM) |  | > 40 mg/mL | > 50 mg/mL |  | 30 mg/mL (≈ 44.4 mM) |  |  |  |  |  | 10 mg/mL (≈ 14.8 mM) | 25 mg/mL (≈ 37 mM) | 10 mg/mL (≈ 14.8 mM) |  | 30 mg/mL (≈ 44.4 mM) |  | 60 mg/mL (≈ 88.8 mM)
